Laboratory results taken from patent US5733569A, “Galenic compositions comprising calcitonin and their use” (Novartis Corporation, priority 1982, dated 1998).

Assays:
[1] = system: Pen. steckii; test: preservative activity against test fungus in calcitonin nasal composition; conditions: chlorbutanol at 0.6% in calcitonin nasal pharmaceutical compositions
Text: Very many well-known preserving agents present themselves for possible use in calcitonin pharmaceutical compositions. However experiment has shown that not all are suitable for practical use in relation to a calcitonin nasal spray.

[2] = system: ciliary beating frequency of rat trachea; test: ciliary beating frequency, microphoto-oscillographic method of L. Chevance et al; conditions: at 0.6%, within 20 minutes
Procedure: 70, […] (1970). These are just some of the disadvantageous effects that can be encountered.
Moreover the compositions are well tolerated as indicated in standard tests, e.g. in that less than 50% inhibition of ciliary beating frequency is observed up to 20 minutes after administration, according to the microphoto-oscillographic method of L. Chevance et al, Acta Otolaryng. 70, 26-28 (1970).

[3] = relative bio-availability study nasal administration/intra-muscular injection of salmon calcitonin in healthy volunteers; format: in vivo; conditions: for time serum levels remain above the detectability limit: detectability limit 26 pg/ml
Procedure: The study is conducted with 12 healthy volunteers, 6 male and 6 female, with a body weight of from 50 to 85 kg. Each subject receives 4 administrations of salmon calcitonin, one intra-muscularly and 3 nasally. Administration is effected at the following dosages:
B. Intra-muscular: 50 MRC units.
Nasal administration is effected using composition in accordance with example 1 and a spray-applicator delivering 55 MRC units per individual spray dosage. For the purposes of administration the subject is laid on the back with the head tilted backwards for 5 minutes. The nostrils are cleaned by blowing of the nose immediately prior to administration.
Intra-muscular administration is effected by injection of a single 1 ml dose of a composition similar to that of example 1, but omitting benzalkonium chloride and containing 50 MRC units into the glutaeus medius muscle.
Each subject receives the 4 administrations in randomized sequence, and at least 3 days are allowed between consecutive administrations. Each administration is effected in the morning after a light breakfast from which milk, butter and cheese is excluded. 100 ml water or orange juice is taken hourly following treatment to maintain urinary output. Further food is allowed not earlier than 4 hours after treatment.
Blood samples are taken immediately prior to administration (control), and at intervals of 5, 15, 30, 60, 90, 120, 180, 240, 360 and 480 minutes following administration. For the control a 20 ml sample is taken. All subsequent samples are 2 ml samples.
The concentration of salmon calcitonin in each serum sample is measured by radio-immuno-assay. Blood-pressure is controlled during the course of the trial and urine-samples tested for possible adverse reaction. Occurrence of side-effects, e.g. symptoms of nausea, is noted.
The AUC ("area under curve") for salmon calcitonin plasma concentration is calculated statistically, once employing all value, including those below the 26 pg/ml detectability limit, once with values below the detectability limit read as zero. Maximal plasma concentration and time at which this is reached are also determined. Relative bio-availability for nasal administration is determined from the relative dosage-standardized AUC (i.e. based on 50 MRC units) following nasal and intra-muscular administration.

Row | AUC values compared with 50 MRC units i.m. ([3]; 110 MRC units intra-nasally) | AUC values compared with 50 MRC units i.m. ([3]; 220 MRC units intra-nasally) | F rel ([3]; both sexes, plasma, inhaled or intranasal, nasal vs intra-muscular, human, read-out: bio-availability (blood-plasma concentration) following nasal administration relative to levels achieved on intra-muscular injection) | time serum levels remain above the detectability limit ([3]; i.m. application of 50 MRC units) | time serum levels remain above the detectability limit ([3]; nasal application of 110 MRC units) | SMILES | time required to reduce the cell count to less than 0.1% [1] | inhibition of the ciliary beating frequency [2] | adverse side-effects following nasal administrations ([3]; nasal, up to the highest dosage of 220 MRC units)
1 |  |  |  |  |  | CC(C)(O)C(Cl)(Cl)Cl [chlorbutanol] | more than 3 days | more than 50% | 
2 | comparable | comparable | ~50% | 6 h | 8 h | CC(C)C[C@H](NC(=O)[C@H](CCCCN)NC(=O)CNC(=O)[C@H](CC(C)C)NC(=O)[C@@H](NC(=O)[C@@H]1CSSC[C@H](N)C(=O)N[C@@H](CO)C(=O)N[C@@H](CC(N)=O)C(=O)N[C@@H](CC(C)C)C(=O)N[C@@H](CO)C(=O)N[C@@H]([C@@H](C)O)C(=O)N1)C(C)C)C(=O)N[C@@H](CO)C(=O)N[C@@H](CCC(N)=O)C(=O)N[C@@H](CCC(=O)O)C(=O)N[C@@H](CC(C)C)C(=O)N[C@@H](Cc1c[nH]cn1)C(=O)N[C@@H](CCCCN)C(=O)N[C@@H](CC(C)C)C(=O)N[C@@H](CCC(N)=O)C(=O)N[C@H](C(=O)N[C@@H](Cc1ccc(O)cc1)C(=O)N1CCC[C@H]1C(=O)N[C@@H](CCCNC(=N)N)C(=O)N[C@H](C(=O)N[C@@H](CC(N)=O)C(=O)N[C@H](C(=O)NCC(=O)N[C@@H](CO)C(=O)NCC(=O)N[C@H](C(=O)N1CCC[C@H]1C(N)=O)[C@@H](C)O)[C@@H](C)O)[C@@H](C)O)[C@@H](C)O [salmon calcitonin] |  |  | No adverse side-effects
